{"source": "patent US20220054588A1", "about": "“USE OF SAP FOR THE TREATMENT OF EUROTIOMYCETES FUNGI INFECTIONS” (HUMANITAS MIRASOLE S.P.A., priority 2018, published 2022)", "molecules": {"B1": {"name": "recombinant murine SAP: recombinant murine SAP from mouse myeloma cell line NSO (R&D Systems) (protein, UniProt P12246 21-224, looked up)", "Serum amyloid P-component": "QTDLKRKVFVFPRESETDHVKLIPHLEKPLQNFTLCFRTYSDLSRSQSLFSYSVKGRDNELLIYKEKVGEYSLYIGQSKVTVRGMEEYLSPVHLCTTWESSSGIVEFWVNGKPWVKKSLQREYTVKAPPSIVLGQEQDNYGGGFQRSQSFVGEFSDLYMWDYVLTPQDILFVYRDSPVNPNILNWQALNYEINGYVVIRPRVWD"}}, "key": {"A. fumigatus [1]": {"test_system": "A. fumigatus", "assay": "Therapy of invasive aspergillosis in cyclophosphamide-immunosuppressed mice (survival, lung CFU)", "type": "in vivo", "settings": "for MST / survival: 4 mg/Kg i.p. at 2 and 24 h; for survival: cyclophosphamide-treated mice", "experimental": "FIG. 12 depicts the therapeutic efficacy of SAP in treatment of invasive aspergillosis. a) b) c) survival of transiently immunosuppressed wt mice after injection with the indicated doses of AF conidia. The curve of untreated mice (n=3) with cyclophosphamide is also shown (a). Human SAP (4 mg/Kg) was injected at 2 h and 24 h after infection. a) AF 5.10^7, n=17; AF 5.10^7+SAP, n=15; b) AF 1.10^7, n=7; AF 1.10^7+SAP, n=8; c) AF 5.10^6, n=8; AF 5.10^6+SAP, n=10.***, P<0.005 SAP-treated vs. saline (Mantel-Cox test). One-way ANOVA, P<0.0001. d) lung CFU in mice treated with cyclophosphamide and infected with 1.10^7 AF conidia.*, P<0.05 (Mann-Whitney test). e) quantitative analysis of AF viability performed using a resazurin-based assay. Plasma (30%) from wt and Apcs^−/− mice were incubated (1 min) with 1.5×10^5 AF conidia pre-opsonized or not with SAP. Results are mean±SD of red fluorescence (excitation/emission 535/580-610 nm) intensity of the resazurin once reduced to resorufin within viable cells. Effect of Posaconazole (POC; 1 μM) exposure is also shown. Results are mean±SEM relative to the condition without serum (grey symbols) of two experiments performed with n=10 mice/group. […] AF viability assay performed in sera depleted from complement components. Figure summarizes one experiment out of 5 also conducted with serum 10%. Mean±SD.*, P<0.05; **, P<0.01 (unpaired t-test). g) and h) FACS analysis of MAC deposition on AF conidia (1×10^7) in presence of sera depleted from complement components (e) and the effect of SAP (f). Mean±SEM of 2 experiments performed out of 4. e, f,*, P<0.05;**, P<0.01;***, P<0.005;****, P<0.001; (Mann-Whitney test).\nFIG. 13 depicts the therapeutic efficacy of SAP in treatment of invasive aspergillosis alone or in combination with posaconazole. Survival of transiently cyclophosphamide-immunosuppressed mice after injection with 5×10^7 conidia. Human SAP (4 mg/Kg) and Posaconazole (POS; 1.6 mg/Kg) were injected at 16 h and 40 h after infection. AF 5.10^7+ saline, n=9; AF 5.10^7+SAP, n=8; AF 5.10^7+POS, n=9; AF 5.10^7+SAP+POS, n=8. P<0.01, saline vs. hSAP; P<0.005, saline vs. POS; P<0.0005, saline vs. hSAP+POS; P<0.05, POS vs. hSAP+POS; (Mantel-Cox test).\n(§1) The growth and culture conditions of A. fumigatus and A. Flavus conidia were as described (Garlanda et al., 2002). For intratracheal (i.t.) injection, mice were anesthetized by i.p. injection of ketamine (100 mg/Kg; i.p.) and xylazine (10 mg/Kg i.p.). After surgical exposure, a volume of 50 μl PBS^2+, pH 7.4, containing 1×10^8 or 5×10^7 resting conidia (>95% viable, as determined by serial dilution and plating of the inoculum on Sabouraud dextrose agar) were delivered into trachea under direct vision using a catheter connected to the outlet of a micro-syringe (Terumo, Belgium). Survival to infection was daily monitored for 10d later. Dying mice were euthanized after evaluation of the following clinical parameters: body temperature dropping, intermittent respiration, solitude presence, sphere posture, fur erection, non-responsive alertness, and inability to ascent when induced.\nIn therapy experiments, immunosuppression was induced by i.p. injection of 150 mg/Kg cyclophosphamide (150μl per mouse of 20 mg/ml solution) 2d before infection. Native human SAP (Merck-Millipore) was dialysed in PBS (pH 7.4) in order to eliminate sodium azide and i.p. injected at the dose of 4 mg/Kg at 2 and 24 h after infection or in combination with Posaconazole (POS; 1.6 mg/Kg) at 16 h and 40 h after infection.\nLung homogenates and analysis. Lungs were removed 16 h after infection and homogenized in 1 ml PBS, pH 7.4, containing 0.01% (vol/vol) Tween-20® (Merck-Millipore) and protease inhibitors. Samples were serially diluted 1:10 in PBS and plated on Sabouraud dextrose agar for blinded CFU counting. […]"}, "A. fumigatus [2]": {"test_system": "A. fumigatus", "assay": "Rescue experiment: survival after i.t. injection of Sap-opsonised A. fumigatus conidia", "type": "in vivo, mice", "settings": "5×10^7 i.t.", "experimental": "FIG. 5 depicts the rescue of susceptibility to A. fumigatus in SAP-deficient mice. a) b) c) d) i.t. injection of non-opsonised or Sap-opsonised AF conidia. a) survival of wt and Apcs^−/− mice. Wt, n=10; wt+Sap, n=10; Apcs^−/−, n=14; Apcs^−/−+Sap, n=13.****, P<0.0001, wt vs. Apcs^−/− or Apcs^−/− vs. Apcs^−/−+Sap (Mantel-Cox test). b) and c) levels of TNF-α (b) and MPO (c) in BALFs of mice (16 h). b),****, P<0.0001;**, P<0.01. c),***, P<0.0005. d, FACS analysis of neutrophil recruitment in lung (16 h). Mean±SEM.****, P<0.0001;*, P<0.05. b), c), d), Mean±SEM; Mann-Whitney test.\nas §1\nIn experiments of in vivo phagocytosis, mice were i.t. injected with 5×10^7 heat inactivated fluorescein isothiocyanate (FITC)-labelled conidia and euthanized 4 h later. In rescue experiments, conidia (1×10^9) were opsonized with murine recombinant SAP (50 μg/ml; R&D Systems) for 1 h at r.t. in PBS, pH 7.4, containing 0.01% (vol/vol) Tween-20® (Merck-Millipore). After washing of unbound protein, a volume of 50 μl (5×10^7 conidia) was i.t. injected."}}}
{"molecule": "human native SAP: Native SAP from human serum purchased by Merck-Millipore; Serum Amyloid P component, SEQ ID NO: 1", "values": [{"measurement": "MST", "setting": "A. fumigatus [1]; 1×10^7 conidia", "result": "> 10"}, {"measurement": "survival", "setting": "A. fumigatus [1]; 1×10^7 conidia", "result": 62.5, "unit": "%"}, {"measurement": "MST", "setting": "A. fumigatus [1]; 5×10^6 conidia", "result": "> 10"}, {"measurement": "survival", "setting": "A. fumigatus [1]; 5×10^6 conidia", "result": 80, "unit": "%"}, {"measurement": "MST", "setting": "A. fumigatus [1]; 5×10^7 conidia", "result": 4}, {"measurement": "survival", "setting": "A. fumigatus [1]; 5×10^7 conidia", "result": 20, "unit": "%"}, {"measurement": "lung fungal burden, median", "setting": "A. fumigatus [1]; 16 h, 1×10^7 conidia, SAP-treated mice", "result": "2.0×10^6 CFU"}, {"measurement": "reduction in fungal burden in lung", "setting": "A. fumigatus [1]; 16 h, 1×10^7 conidia, SAP-treated vs. untreated", "result": 12, "unit": "fold"}]}
{"molecule": "B1", "values": [{"measurement": "MST", "setting": "A. fumigatus [2]; Apcs−/− mice", "result": "> 10", "unit": "days"}, {"measurement": "mice that resisted infection (survival)", "setting": "A. fumigatus [2]; Apcs−/− mice", "result": 69, "unit": "%"}, {"measurement": "MST", "setting": "A. fumigatus [2]; wt mice", "result": "> 10"}, {"measurement": "survival", "setting": "A. fumigatus [2]; wt mice", "result": 70, "unit": "%"}]}
